Assay results as given in patent US9179678B2, “Substituted [1,2,4]triazoles and substituted tetrazoles as herbicides” (SYNGENTA LIMITED, priority 2012, dated 2015).

Key:
Type in all cases: in vivo
[1] = system: Alopecurus myosuroides (ALOMY); experiment: Post-emergence glasshouse herbicide test; conditions: POST Application, 1000 g/h, after 13 days
Procedure, shortened: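 In this glasshouse post-emergence test, ALOMY plants were cultivated in standard soil for 8 days under controlled conditions (24/16° C. day/night, 14 hours light, 65% humidity). They were then treated with a spray derived from an acetone/water (50:50) formulation with 0.5% Tween 20, grown on with watering twice daily, and rated for percentage damage after 13 days.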

[2] = system: Amaranthus retoflexus (AMARE); experiment: Post-emergence glasshouse herbicide test; conditions: POST Application, 1000 g/h, after 13 days
[3] = system: Echinochloa crus-galli (ECHCG); experiment: Post-emergence glasshouse herbicide test; conditions: POST Application, 1000 g/h, after 13 days
[4] = system: Ipomoea hederacea (IPOHE); experiment: Post-emergence glasshouse herbicide test; conditions: POST Application, 1000 g/h, after 13 days
Solanum nigrum (SOLNI) [5] = experiment: Post-emergence glasshouse herbicide test; conditions: POST Application, 1000 g/h, after 13 days
Procedure, shortened: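 This glasshouse post-emergence herbicide test used Solanum nigrum plants sown in standard soil and cultivated for 8 days under controlled conditions (24/16° C. day/night, 14 hours light, 65% humidity). An aqueous spray from an acetone/water (50:50) solution with 0.5% Tween 20 was applied. Plants were watered twice daily, and damage to each plant was assessed as a percentage 13 days later.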

Setaria faberi (SETFA) [6] = experiment: Post-emergence glasshouse herbicide test; conditions: POST Application, 1000 g/h, after 13 days
Procedure, shortened: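 This post-emergence glasshouse herbicide test used SETFA plants raised in pots of standard soil for 8 days under controlled conditions (24/16° C., 14 hours light, 65% humidity). An aqueous spray made from acetone/water (50:50) with 0.5% Tween 20 was applied. Plants were watered twice daily, and percentage plant damage was assessed 13 days later.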

[7] = system: Alopecurus myosuroides (ALOMY); experiment: Pre-emergence glasshouse herbicide test; conditions: PRE Application, 1000 g/h, after 13 days
Procedure, shortened: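 This pre-emergence glasshouse test used pots of standard soil sown with ALOMY seed and cultivated for one day under controlled conditions of 24/16° C., 14 hours light and 65% humidity. An aqueous spray from an acetone/water (50:50) formulation with 0.5% Tween 20 was applied. After 13 days of further growth with twice-daily watering, plant damage was rated as a percentage.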

[8] = system: Amaranthus retoflexus (AMARE); experiment: Pre-emergence glasshouse herbicide test; conditions: PRE Application, 1000 g/h, after 13 days
[9] = system: Echinochloa crus-galli (ECHCG); experiment: Pre-emergence glasshouse herbicide test; conditions: PRE Application, 1000 g/h, after 13 days
[10] = system: Ipomoea hederacea (IPOHE); experiment: Pre-emergence glasshouse herbicide test; conditions: PRE Application, 1000 g/h, after 13 days
Setaria faberi (SETFA) [11] = experiment: Pre-emergence glasshouse herbicide test; conditions: PRE Application, 1000 g/h, after 13 days
Solanum nigrum (SOLNI) [12] = experiment: Pre-emergence glasshouse herbicide test; conditions: PRE Application, 1000 g/h, after 13 days

Structure (SMILES) | percentage damage caused to the plant, ALOMY [1] | percentage damage caused to the plant, AMARE [2] | percentage damage caused to the plant, ECHCG [3] | percentage damage caused to the plant, IPOHE [4] | percentage damage caused to the plant, SOLNI (Solanum nigrum (SOLNI) [5]) | percentage damage caused to the plant, SETFA (Setaria faberi (SETFA) [6]) | percentage damage caused to the plant, ALOMY [7] | percentage damage caused to the plant, AMARE [8] | percentage damage caused to the plant, ECHCG [9] | percentage damage caused to the plant, IPOHE [10] | percentage damage caused to the plant, SETFA (Setaria faberi (SETFA) [11]) | percentage damage caused to the plant, SOLNI (Solanum nigrum (SOLNI) [12])
Cc1nc2c(cc1F)cc(C(=O)Nc1nnnn1C)c(=O)n2-c1ccsc1 [Compound 6.002] | 1 (1=0-19%) | 5 (5=80-100%) | 4 (4=60-79%) | 5 (5=80-100%) | 5 (5=80-100%) | 2 (2=20-39%) | 1 (1=0-19%) | 5 (5=80-100%) | 1 (1=0-19%) | 2 (2=20-39%) | 1 (1=0-19%) | 4 (4=60-79%)
Cc1nc2c(cc1F)cc(C(=O)Nc1nnnn1C)c(=O)n2-c1ccccc1 [Compound 6.003] | 1 (1=0-19%) | 5 (5=80-100%) | 4 (4=60-79%) | 5 (5=80-100%) | 5 (5=80-100%) | 3 (3=40-59%) | 1 (1=0-19%) | 5 (5=80-100%) | 3 (3=40-59%) | 3 (3=40-59%) | 1 (1=0-19%) | 5 (5=80-100%)
Cn1nnnc1NC(=O)c1cc2ccccc2n(-c2ccccc2)c1=O [Compound 7.001] | 1 (1=0-19%) | 3 (3=40-59%) | 2 (2=20-39%) | 2 (2=20-39%) | 4 (4=60-79%) | 1 (1=0-19%) | 1 (1=0-19%) | 2 (2=20-39%) | 1 (1=0-19%) | 1 (1=0-19%) | 1 (1=0-19%) | 1 (1=0-19%)
Cn1nnnc1NC(=O)c1cc2ccccc2n(-c2ccsc2)c1=O [Compound 7.002] | 1 (1=0-19%) | 3 (3=40-59%) | 2 (2=20-39%) | 2 (2=20-39%) | 5 (5=80-100%) | 1 (1=0-19%) | 1 (1=0-19%) | 2 (2=20-39%) | 1 (1=0-19%) | 2 (2=20-39%) | 1 (1=0-19%) | 3 (3=40-59%)
Cn1nnnc1NC(=O)c1cc2ccncc2n(-c2ccccc2)c1=O [Compound 8.001] | 1 (1=0-19%) | 5 (5=80-100%) | 4 (4=60-79%) | 3 (3=40-59%) | 5 (5=80-100%) | 1 (1=0-19%) | 1 (1=0-19%) | 5 (5=80-100%) | 1 (1=0-19%) | 1 (1=0-19%) | 1 (1=0-19%) | 2 (2=20-39%)
